Assay results: patent publication US8889631B2, “Disruptors of early/recycling endosomes” (The University of Kansas, priority 2008, dated 2014)
Entries after “also recorded” stand apart in the source; their conditions may differ. Square brackets hold non-standard residues; d marks the D form. Peptide text beside a SMILES is read from it. * marks the point of attachment. Pentanoyl(5-NH-cholesteryl) = CC(C)CCC[C@@H](C)[C@H]1CC[C@H]2[C@@H]3CC=C4C[C@@H](NCCCCC(=O)*)CC[C@]4(C)[C@H]3CC[C@]12C; X1 = O=C(O)c1c(Cl)cc(C(=O)*)c(Cl)c1-c1c2cc(Cl)c(=O)c(Cl)c-2oc2c(Cl)c(O)c(Cl)cc12; Ahx = NCCCCCC(=O)O

Tests used:
Jurkat lymphocytes [1] = test: Inhibiting endosome acidification, Jurkat cells (bafilomycin A1); type: cell-based, human; details: bafilomycin A1 1 μM, Compound 3 (2.5 μM) and Compound 2 (2 μM), 12 h, 37° C.
Procedure: Jurkat lymphocytes (5×10^5) in media (500 μL) were pretreated with bafilomycin A1 (final concentration=1 μM) in DMSO (final [DMSO]=2%) for 1 h. […] After incubation at 37° C. for 12 h, the cells were washed with fresh media (500 μL) and resuspended in fresh media (125 μL) for analysis by confocal microscopy.

CHO cells [2] = test: Inhibiting endosome acidification, CHO cells (chloroquine); type: cell-based, Chinese hamster; details: chloroquine 5 μM, Compound 3 (5 μM) and Compound 2 (8 μM), 24 h
Procedure: Exponentially growing CHO cells were cultivated on round collagen-coated coverslips (22 mm, BD BioCoat) in a six-well plate (1.2×10^5 cells/well, 2 mL). After 24 h, the media was replaced with fresh media containing chloroquine (final concentration=5 μM) in DMSO (final [DMSO]=1%) and cells were incubated at 37° C. for 1 h. The media was replaced with fresh media containing Compound 3 (5 μM) and Compound 2 (concentration=8 μM) in DMSO (final [DMSO]=1%) with or without chloroquine […] (final concentration=5 μM) in DMSO (final [DMSO]=1%). The cells were incubated at 37° C. for 24 h. The cells were washed with PBS (2×2 mL) prior to analysis by confocal microscopy.

Jurkat lymphocytes [3] = test: Cytotoxicity assay (CellTiter-Glo), Jurkat cells; type: cell-based, human; details: 2 μM, 48 h at 37° C.
Procedure: Jurkat lymphocytes (7×10^4) in media (100 μL) were loaded on a 96-well plate. To these cells were added increasing concentrations of Compound 1 in DMSO (final [DMSO]=1%). After incubation for 48 h, cells from each well (10 μL) were transferred to an opaque 96-well plate containing PBS (170 μL per well) and treated with CellTiter-Glo reagent (20 μL, Promega) according to the Promega protocol provided with the reagent. After incubation at ambient temperature (22° C.) for 10 min, the luminescence of the samples was measured with a Packard Fusion microplate reader.

Jurkat lymphocytes [4] = test: Toxicity of colchicine-cholesterylamine Compound 30 with or without Compound 1, DIC micrographs; type: cell-based, human; details: 2 μM; 48 h
Procedure: FIGS. 11B-11E show DIC micrographs of Jurkat lymphocytes treated for 48 h with DMSO (FIG. 11B), Compound 1 (FIG. 11C), Compound 30 (FIG. 11D, and Compounds 1 and 30 (FIG. 11E).
The delivery system was studied with the anticancer agent colchicine being linked to the N-alkyl-3β-cholesterylamine via a disulfide, which compound is Compound 30 as shown in FIG. 11A. The delivery system utilized Compound 1 to release the anticancer agent colchicine from Compound 30. Colchicine was linked to an N-alkyl-3β-cholesterylamine via a disulfide linker to present a compound that is non-toxic to Jurkat lymphocytes at 200 nM. The cholesterylamine-PC4 peptide (Compound 1) is similarly non-toxic at 2 μM. However, the combination of these two compounds (Compound 1+Compound 30) is lethal to lymphocytes because Compound 1 enables release of the toxic colchicine derivative (FIGS. 11B-11E). […] It is thought that tumor-specific proteases capable of cleaving a peptide bond linking N-alkyl-3β-cholesterylamines to doxorubicin or other cancer agent will similarly enable the specific delivery of drugs to cognate cancer cells. Also, a cell type specific protease can be used for controlling delivery of the agent into the cytosol of those cell types.

CHO cells [5] = test: Cytotoxicity assay (CellTiter-Glo), CHO cells; type: cell-based, Chinese hamster; details: 8 μM, 48 h at 37° C.
Procedure: Trypsinized CHO cells (2×10^3) in media (100 μL) were loaded on a 96-well plate. After incubation for 36 h, the media was replaced with fresh media (100 μL) containing increasing concentrations of Compound 1 in DMSO (final [DMSO]=1%). After 48 h of incubation, the cells in each well were washed with PBS (2×100 μL) and detached by treatment with a solution of trypsin (50 μL, 5 min). The cell suspension (10 μL) was transferred to an opaque 96-well plate containing PBS (170 μL per well) and treated with CellTiter-Glo reagent (20 μL, Promega) according to the Promega protocol provided with the reagent. After incubation at ambient temperature (22° C.) for 10 min, the luminescence of the samples was measured with a Packard Fusion microplate reader.

Jurkat lymphocytes [6] = test: Release of fluorescent cargo from early/recycling endosomes, confocal microscopy, Jurkat lymphocytes; type: cell-based, human; details: for release of green fluorescence of Compound 3 from early/recycling endosomes by the endosome disruptor: Compound 3 (2.5 μM) and disruptor (2 μM) for 12 h; for release of the fluorophore of the cargo compound when combined with Compound 1: Compound 3 or Compound 4 (2.5 μM), Compound 1 (2 μM), 12 h
Procedure: (§1) FIG. 4A-4J show confocal fluorescence and DIC micrographs of living cells treated with fluorescent probes. FIGS. 4A-4F show CHO cells were treated with Compound 3 or Compound 4 (5 μM) and Compounds 1, 2, or 5 (8 μM) for 24 h. In FIG. 4F, [chloroquine]=5 μM. In FIGS. 4G-4J, Jurkat lymphocytes were treated with Compound 3 or Compound 4 (2.5 μM) and Compound 1 or Compound 5 (2 μM) for 12 h.
Jurkat cells were treated with green fluorescent Compound 3 (2.5 μM) and red fluorescent Compound 2 (2 μM) for 12 h at 37° C. In FIG. 9B, bafilomycin A1 (1 μM), a vacuolar H^+ ATPase inhibitor that blocks acidification of endosomes, was added. FIG. 9A is without bafilomyin. Cells were washed with media and imaged by DIC and confocal laser scanning microscopy.
(§2) A Zeiss LSM 5 Pascal confocal laser-scanning microscope fitted with a Plan Apochromat objective (63×) was employed. Fluorescein and Alexa Fluor-488 were excited with a 488 nm Argon ion laser (25 mW, 1% laser power) and emitted photons were collected through 505 nm LP filter. Excitation of 6-Hex, Texas Red, and DiI employed a 543 nm HeNe laser and emitted photons were collected through a 560 nm LP filter.

CHO cells [7] = test: Release of fluorescent cargo from early/recycling endosomes, confocal microscopy, CHO cells; type: cell-based, Chinese hamster; details: for release of green fluorescence of Compound 3 from early/recycling endosomes by the endosome disruptor: Compound 3 (5 μM) and Compounds 1, 2, or 5 (8 μM) for 24 h; for release of the fluorophore of the cargo compound when combined with Compound 1 or Compound 2: Compound 3 or Compound 4 (5 μM), disruptor 8 μM, 24 h
Procedure: as §1, §2

CHO cells [8] = test: Dose dependence of endosomal escape quantified by flow cytometry, CHO cells; type: cell-based, Chinese hamster; details: Compound 3 (5 μM) with increased amounts of Compound 1, or Compound 5 at 8 micromolar, 24 h, 37° C.
Procedure: (§3) Cellular fluorescence was analyzed by flow cytometry.
(§4) Analyses were performed with a Beckman-Coulter XL-MCL bench-top flow cytometer. Forward-scatter (FS) and side-scatter (SSC) dot plots afforded cellular physical properties of size and granularity that allowed gating of live cells. After gating, 10,000 cells were counted. In studies of endosomal release of fluorescein derivative Compound 6 mediated by Compound 1, the fluorophore was excited at 488 nm with a 15 mW air-cooled argon-ion laser, the emission was split with a 550 nm dichroic and filtered through a 510 nm long pass filter and 530/30-nm band pass filter using the XL-MCL cytometer. The PMT voltage for this instrument was set to 501 for Jurkat cells and 524 for CHO cells.

Jurkat lymphocytes [9] = test: Dose dependence of endosomal escape quantified by flow cytometry, Jurkat lymphocytes; type: cell-based, human; details: Compound 3 (2.5 μM) with increased amounts of Compound 1, or Compound 5 at 8 micromolar, 12 h, 37° C.
Procedure: as §3, §4

CO/C1=C\C(C)=C\[C@@H](C)[C@@H](O)[C@@H](C)C/C(C)=C/C=C/[C@H](OC)[C@@H]([C@@H](C)[C@@H](O)[C@H](C)[C@@]2(O)C[C@@H](O)[C@H](C)[C@@H](C(C)C)O2)OC1=O [bafilomycin A1]
effect of raising endosomal pH on release of the fluorophore (endosomal escape) (Jurkat lymphocytes [1]): blocked release of the fluorophore; also recorded: retention in endosomes

CCN(CC)CCCC(C)Nc1ccnc2cc(Cl)ccc12 (stereo not drawn) [chloroquine]
effect of raising endosomal pH on release of the fluorophore (CHO cells [2]): blocked release of the fluorophore

CC(C)CCC[C@@H](C)[C@H]1CC[C@H]2[C@@H]3CC=C4C[C@@H](NCCCCC(=O)N[C@@H](CCC(=O)O)C(=O)N[C@@H](CCC(=O)O)C(=O)NCCCCCC(=O)NCCCCCC(=O)N[C@@H](CO)C(=O)N[C@@H](CO)C(=O)N[C@@H](C)C(=O)N[C@@H](Cc5c[nH]c6ccccc56)C(=O)N[C@@H](Cc5c[nH]c6ccccc56)C(=O)N[C@@H](CO)C(=O)N[C@@H](Cc5ccc(O)cc5)C(=O)N[C@@H](Cc5c[nH]c6ccccc56)C(=O)N5CCC[C@H]5C(=O)N5CCC[C@H]5C(=O)N[C@H](C(=O)N[C@@H](C)C(N)=O)C(C)C)CC[C@]4(C)[C@H]3CC[C@]12C [Compound 1, N-[6-({6-[(N-{5-(3β-Cholest-5-en-3-ylammonio)pentanoyl}-5-oxidanidyl-5-oxidanylidene-L-norvalyl-5-oxidanidyl-5-oxidanylidene-L-norvalyl)amino]hexanoyl}amino)hexanoyl]-L-seryl-L-seryl-L-alanyl-L-tryptophyl-L-tryptophyl-L-seryl-L-tyrosyl-L-tryptophyl-L-prolyl-L-prolyl-L-valyl-L-alaninamide] ({Pentanoyl(5-NH-cholesteryl)}-EE[Ahx][Ahx]SSAWWSYWPPVA-NH2)
toxicity (cellular viability) (Jurkat lymphocytes [3]): non-toxic
toxicity to Jurkat lymphocytes (Jurkat lymphocytes [4]): non-toxic
toxicity (cellular viability) (CHO cells [5]): non-toxic

CC(C)CCC[C@@H](C)[C@H]1CC[C@H]2[C@@H]3CC=C4C[C@@H](NCCCCC(=O)N[C@@H](CCC(=O)O)C(=O)N[C@@H](CCCCNC(=O)c5cc(Cl)c(C(=O)O)c(-c6c7cc(Cl)c(=O)c(Cl)c-7oc7c(Cl)c(O)c(Cl)cc67)c5Cl)C(=O)NCCCCCC(=O)NCCCCCC(=O)N[C@@H](CO)C(=O)N[C@@H](CO)C(=O)N[C@@H](C)C(=O)N[C@@H](Cc5c[nH]c6ccccc56)C(=O)N[C@@H](Cc5c[nH]c6ccccc56)C(=O)N[C@@H](CO)C(=O)N[C@@H](Cc5ccc(O)cc5)C(=O)N[C@@H](Cc5c[nH]c6ccccc56)C(=O)N5CCC[C@H]5C(=O)N5CCC[C@H]5C(=O)N[C@H](C(=O)N[C@@H](C)C(N)=O)C(C)C)CC[C@]4(C)[C@H]3CC[C@]12C [Compound 2, N-(6-{[6-({N-{5-(3β-Cholest-5-en-3-ylammonio)pentanoyl}-5-oxidanidyl-5-oxidanylidene-L-norvalyl-N^6-[4-carboxy-2,5-dichloro-3-(2,4,5,7-tetrachloro-6-hydroxy-3-oxo-3H-xanthen-9-yl)benzoyl]-L-lysyl}amino)hexanoyl]amino}hexanoyl)-L-seryl-L-seryl-L-alanyl-L-tryptophyl-L-tryptophyl-L-seryl-L-tyrosyl-L-tryptophyl-L-prolyl-L-prolyl-L-valyl-L-alaninamide] ({Pentanoyl(5-NH-cholesteryl)}-EK(X1)[Ahx][Ahx]SSAWWSYWPPVA-NH2)
release of green fluorescence of Compound 3 from early/recycling endosomes by the endosome disruptor (Jurkat lymphocytes [6]): endosomal escape
release of green fluorescence of Compound 3 from early/recycling endosomes by the endosome disruptor (CHO cells [7]): fluorescence was observed in the cytosol and nucleus

CC(C)CCC[C@@H](C)[C@H]1CC[C@H]2[C@@H]3CC=C4C[C@@H](NCCCNC(=O)[C@H](CCC(=O)O)NC(=O)[C@H](CCC(=O)O)NC(=O)CCSSCCNC(=O)c5ccc(-c6c7ccc(=O)cc-7oc7cc(O)ccc67)c(C(=O)O)c5)CC[C@]4(C)[C@H]3CC[C@]12C [Compound 3, (11S,14S)-11-(2-Carboxylatoethyl)-1-[3-carboxylato-4-(6-oxido-3-oxo-3H-xanthen-9-yl)phenyl]-14-[({3-(3β-cholest-5-en-3-ylammonio)propyl}amino)carbonyl]-1,9,12-trioxo-5,6-dithia-2,10,13-triazaheptadecan-17-oate]
release of the fluorophore of the cargo compound when combined with Compound 1 (Jurkat lymphocytes [6]): released from entrapment in early/recycling endosomes
release of the fluorophore of the cargo compound when combined with Compound 1 or Compound 2 (CHO cells [7]): released from entrapment in early/recycling endosomes

Ac-SSAWWSYWPPVA-NH2 [Compound 5, N-Acetyl-L-seryl-L-seryl-L-alanyl-L-tryptophyl-L-tryptophyl-L-seryl-L-tyrosyl-L-tryptophyl-L-prolyl-L-prolyl-L-valyl-L-alaninamide, reference compound]
release of green fluorescence of Compound 3 from early/recycling endosomes by the endosome disruptor (Jurkat lymphocytes [6]): little effect
release of green fluorescence of Compound 3 from early/recycling endosomes by the endosome disruptor (CHO cells [7]): little effect
cellular fluorescence (endosomal escape) by flow cytometry (CHO cells [8]): did not increase fluorescence
cellular fluorescence (endosomal escape) by flow cytometry (Jurkat lymphocytes [9]): did not increase fluorescence

CC(C)CCC[C@@H](C)[C@H]1CC[C@H]2[C@@H]3CC=C4C[C@@H](NCCCNC(=O)[C@H](CCC(=O)O)NC(=O)[C@H](CCC(=O)O)NC(=O)CCNC(=O)CCNC(=O)c5ccc(-c6c7ccc(=O)cc-7oc7cc(O)ccc67)c(C(=O)O)c5)CC[C@]4(C)[C@H]3CC[C@]12C [Compound 4, (11S,14S)-11-(2-Carboxylatoethyl)-1-[3-carboxylato-4-(6-oxido-3-oxo-3H-xanthen-9-yl)phenyl]-14-[({3-(3β-cholest-5-en-3-ylammonio)propyl}amino)carbonyl]-1,5,9,12-tetraoxo-2,6,10,13-tetraazaheptadecan-17-oate]
release of the fluorophore of the cargo compound when combined with Compound 1 (Jurkat lymphocytes [6]): blocked release of the fluorophore
release of the fluorophore of the cargo compound when combined with Compound 1 or Compound 2 (CHO cells [7]): blocked release of the fluorophore
